Measured values taken from DBAASP.
Converted amounts (≈) assume the structure as drawn.

Assays:
Assay in all cases: ≥ marks a high value that may be exact or a test limit, other limits are often not marked, values filed in µg/mL are converted to µM
[1] = tested on: Candida albicans NCYC 1467
[2] = tested on: Escherichia coli NCTC 10418
[3] = tested on: Pseudomonas aeruginosa ATCC 27853
[4] = tested on: Staphylococcus aureus NCTC 10788
[5] = tested on: Enterococcus faecalis NCTC 12697
[6] = tested on: Staphylococcus aureus NCTC 12493
[7] = tested on: Candida albicans
[8] = tested on: Escherichia coli MG1655
[9] = tested on: Pseudomonas aeruginosa PAO1
[10] = tested on: Staphylococcus aureus ATCC 25923
[11] = tested on: Pseudomonas aeruginosa H1001
[12] = tested on: Bacillus megaterium ATCC 10778
[13] = tested on: Bacillus subtilis ATCC 6633
[14] = tested on: Candida albicans MDM8
[15] = tested on: Candida tropicalis IOC 4560
[16] = tested on: Enterobacter cloacae beta-12
[17] = tested on: Escherichia coli SBS 363
[18] = tested on: Micrococcus luteus A270
[19] = tested on: Serratia marcescens ATCC 4112
[20] = tested on: Staphylococcus aureus ATCC 29213
[21] = tested on: Staphylococcus epidermidis ATCC 12228

CC[C@H](C)[C@H](NC(=O)[C@H](CC(C)C)NC(=O)[C@H](C)NC(=O)[C@H](CO)NC(=O)[C@@H](NC(=O)[C@H](CC(C)C)NC(=O)[C@@H](N)CC(N)=O)C(C)C)C(=O)N[C@@H](CCC(=O)O)C(=O)NCC(=O)N[C@@H](CCCN=C(N)N)C(=O)N[C@@H](CCCCN)C(=O)N[C@@H](Cc1ccc(O)cc1)C(=O)N[C@@H](CC(C)C)C(=O)N[C@@H](CCCCN)C(=O)N[C@@H](CC(N)=O)C(=O)N[C@H](C(=O)N[C@@H](CC(C)C)C(=O)N[C@@H](CCCCN)C(=O)O)C(C)C [NLVSALIEGRKYLKNVLK]
MIC [1]: 31.1 µM (≈ 64 µg/mL)
MIC [2]: ≥ 62.2 µM
MIC [3]: > 249 µM
MIC [4]: ≥ 62.2 µM

CSCC[C@H](NC(=O)[C@H](CC(=O)O)NC(=O)[C@@H](NC(=O)[C@@H](NC(=O)[C@H](C)NC(=O)[C@H](CC(N)=O)NC(=O)[C@H](CC(C)C)NC(=O)[C@H](C)NC(=O)[C@H](C)NC(=O)[C@H](CCCCN)NC(=O)CNC(=O)[C@H](C)NC(=O)[C@H](C)NC(=O)[C@H](CCCCN)NC(=O)CNC(=O)[C@@H](NC(=O)[C@H](CC(N)=O)NC(=O)[C@H](CCCCN)NC(=O)[C@H](CC(C)C)NC(=O)[C@H](CC(C)C)NC(=O)[C@H](CO)NC(=O)[C@H](CCCCN)NC(=O)[C@H](Cc1c[nH]c2ccccc12)NC(=O)[C@H](CC(C)C)NC(=O)[C@H](C)N)C(C)C)C(C)C)[C@@H](C)O)C(=O)N[C@H](C(=O)N[C@@H](CC(N)=O)C(=O)N[C@@H](CCC(N)=O)C(N)=O)C(C)C [ALWKSLLKNVGKAAGKAALNAVTDMVNQ]
MIC [1]: 4 µM (≈ 11.6 µg/mL)
MIC [5]: ≥ 64 µM
MIC [2]: 4 µM (≈ 11.6 µg/mL)
MIC [3]: 4 µM (≈ 11.6 µg/mL)
MIC [4]: 4 µM (≈ 11.6 µg/mL)
MIC [6]: 4 µM (≈ 11.6 µg/mL)

CSCC[C@H](NC(=O)[C@@H](NC(=O)[C@H](CCCCN)NC(=O)[C@H](Cc1cnc[nH]1)NC(=O)[C@H](CC(C)C)NC(=O)CN)C(C)C)C(=O)N[C@@H](CCCN=C(N)N)C(=O)N[C@@H](CCC(=O)O)C(=O)N[C@H](C(=O)N[C@@H](CC(C)C)C(=O)NCC(=O)N[C@@H](Cc1ccc(O)cc1)C(N)=O)C(C)C [GLHKVMREVLGY]
MIC [7]: > 128 µM
MIC [8]: ≥ 128 µM
MIC [9]: > 128 µM
MIC [10]: > 128 µM

CSCC[C@H](NC(=O)[C@@H](NC(=O)[C@H](CCCCN)NC(=O)[C@H](Cc1cnc[nH]1)NC(=O)[C@H](CC(C)C)NC(=O)CN)C(C)C)C(=O)N[C@@H](CCCN=C(N)N)C(=O)N[C@@H](CCCCN)C(=O)N[C@H](C(=O)N[C@@H](CC(C)C)C(=O)NCC(=O)N[C@@H](Cc1ccc(O)cc1)C(=O)N[C@@H](CC(C)C)C(=O)N[C@@H](CCCN=C(N)N)C(=O)N[C@@H](CC(N)=O)C(=O)N[C@H](C(=O)N[C@@H](Cc1ccc(O)cc1)C(=O)N[C@@H](CCCCN)C(N)=O)C(C)C)C(C)C [GLHKVMRKVLGYLRNVYK]
MIC [7]: 8 µM (≈ 17.4 µg/mL)
MIC [8]: 1 µM (≈ 2.17 µg/mL)
MIC [9]: 8 µM (≈ 17.4 µg/mL)
MIC [10]: 8 µM (≈ 17.4 µg/mL)

CC[C@H](C)[C@H](NC(=O)[C@H](CCCN=C(N)N)NC(=O)[C@H](CCCN=C(N)N)NC(=O)[C@@H]1CCCN1C(=O)[C@H](Cc1ccc(O)cc1)NC(=O)[C@H](CCCN=C(N)N)NC(=O)[C@@H]1CCCN1C(=O)[C@H](CCCN=C(N)N)NC(=O)[C@@H]1CCCN1C(=O)[C@H](CC(C)C)NC(=O)[C@H](Cc1ccc(O)cc1)NC(=O)[C@@H]1CCCN1C(=O)[C@@H]1CCCN1C(=O)[C@H](CCCCN)NC(=O)[C@H](CC(=O)O)NC(=O)[C@@H](N)C(C)C)C(=O)N[C@@H](Cc1ccc(O)cc1)C(=O)N[C@@H](CC(N)=O)C(=O)N[C@@H](CCCN=C(N)N)C(=O)NCC(=O)O [VDKPPYLPRPRYPRRIYNRG]
MIC [11]: 0.0597 µM (≈ 0.15 µg/mL)

CC[C@H](C)[C@H](NC(=O)[C@H](CCCCN)NC(=O)[C@H](CCCCN)NC(=O)[C@H](Cc1cnc[nH]1)NC(=O)[C@@H](NC(=O)[C@H](CCCN=C(N)N)NC(=O)[C@H](CS)NC(=O)[C@H](CC(C)C)NC(=O)[C@H](CC(C)C)NC(=O)[C@@H](N)CCCCN)C(C)C)C(=O)O [KLLCRVHKKI]
MIC [11]: ≥ 40.4 µM

CSCC[C@H](NC(=O)[C@@H](NC(=O)[C@@H](N)CCCCN)C(C)C)C(=O)N[C@@H](CCCN=C(N)N)C(=O)N[C@@H](CCC(=O)O)C(=O)N[C@H](C(=O)N[C@@H](CC(C)C)C(=O)NCC(=O)N[C@@H](Cc1ccc(O)cc1)C(=O)N[C@@H](CCC(=O)O)C(=O)N[C@@H](CCCN=C(N)N)C(=O)N[C@@H](CC(N)=O)C(=O)N[C@@H](CO)C(=O)N[C@@H](Cc1ccc(O)cc1)C(=O)N[C@@H](CCCCN)C(N)=O)C(C)C [KVMREVLGYERNSYK]
MIC [7]: > 128 µM
MIC [8]: ≥ 128 µM
MIC [9]: > 128 µM
MIC [10]: > 128 µM

CC(C)C[C@H](NC(=O)[C@H](C)NC(=O)CNC(=O)[C@H](CC(C)C)NC(=O)[C@@H](N)Cc1ccccc1)C(=O)N[C@@H](Cc1c[nH]c2ccccc12)C(=O)N[C@@H](CC(N)=O)C(=O)N1CCC[C@H]1C(=O)N[C@@H](C)C(=O)N[C@@H](CCCCN)C(=O)N[C@@H](CO)C(=O)N[C@H](C(=O)N[C@@H](Cc1ccccc1)C(N)=O)C(C)C [FLGALWNPAKSVF]
MIC [12]: ≥ 50 µM
MIC [13]: ≥ 50 µM
MIC [14]: ≥ 50 µM
MIC [15]: ≥ 50 µM
MIC [16]: ≥ 50 µM
MIC [17]: ≥ 50 µM
MIC [18]: 25 µM (≈ 36.2 µg/mL)
MIC [3]: > 50 µM
MIC [19]: 12.5 µM (≈ 18.1 µg/mL)
MIC [20]: > 50 µM

NCCCC[C@H](NC(=O)[C@H](CCCCN)NC(=O)[C@H](Cc1c[nH]c2ccccc12)NC(=O)[C@H](CCCCN)NC(=O)[C@H](Cc1c[nH]c2ccccc12)NC(=O)[C@H](Cc1c[nH]c2ccccc12)NC(=O)[C@H](CCCCN)NC(=O)[C@H](Cc1c[nH]c2ccccc12)NC(=O)[C@@H](N)CCCCN)C(N)=O [KWKWWKWKK]
MIC [11]: ≥ 89 µM

CC[C@H](C)[C@H](NC(=O)CNC(=O)CNC(=O)[C@H](C)NC(=O)[C@@H](NC(=O)[C@H](CCCCN)NC(=O)[C@@H]1CCCN1C(=O)[C@@H](NC(=O)[C@H](CC(C)C)NC(=O)[C@H](CO)NC(=O)[C@H](CC(C)C)NC(=O)[C@@H](N)Cc1ccccc1)[C@@H](C)CC)[C@@H](C)CC)C(=O)N[C@@H](C)C(=O)N[C@@H](C)C(=O)N[C@@H](CC(C)C)C(=O)N[C@@H](C)C(=O)N[C@@H](CCCCN)C(=O)N[C@@H](Cc1cnc[nH]1)C(=O)N[C@@H](CC(C)C)C(N)=O [FLSLIPKIAGGIAALAKHL]
MIC [1]: 2.07 µM (≈ 4 µg/mL)
MIC [5]: 16.6 µM (≈ 32 µg/mL)
MIC [2]: 16.6 µM (≈ 32 µg/mL)
MIC [4]: 4.14 µM (≈ 8 µg/mL)
MIC [6]: 4.14 µM (≈ 8 µg/mL)

CC(C)C[C@H](NC(=O)[C@H](C)NC(=O)[C@H](CCCCN)NC(=O)[C@H](CC(C)C)NC(=O)[C@@H](N)Cc1ccccc1)C(=O)N[C@@H](Cc1c[nH]c2ccccc12)C(=O)N[C@@H](CCCCN)C(=O)N[C@H](C(=O)N[C@@H](C)C(=O)N[C@@H](CCCCN)C(=O)N[C@@H](CO)C(=O)N[C@H](C(=O)N[C@@H](Cc1ccccc1)C(N)=O)C(C)C)C(C)C [FLKALWKVAKSVF]
MIC [12]: 0.4 µM (≈ 0.614 µg/mL)
MIC [14]: 1.6 µM (≈ 2.46 µg/mL)
MIC [15]: 0.8 µM (≈ 1.23 µg/mL)
MIC [16]: 3.1 µM (≈ 4.76 µg/mL)
MIC [17]: 1.6 µM (≈ 2.46 µg/mL)
MIC [18]: 0.4 µM (≈ 0.614 µg/mL)
MIC [19]: 0.1 µM (≈ 0.154 µg/mL)
MIC [20]: 0.8 µM (≈ 1.23 µg/mL)
MIC [21]: 3.1 µM (≈ 4.76 µg/mL)

CC[C@H](C)[C@H](NC(=O)[C@H](CCCN=C(N)N)NC(=O)[C@H](CCCN=C(N)N)NC(=O)[C@@H]1CCCN1C(=O)[C@H](CCSC)NC(=O)[C@H](CCCN=C(N)N)NC(=O)[C@@H]1CCCN1C(=O)[C@H](CCCN=C(N)N)NC(=O)[C@@H]1CCCN1C(=O)[C@H](CC(C)C)NC(=O)[C@H](Cc1ccc(O)cc1)NC(=O)[C@@H]1CCCN1C(=O)[C@@H]1CCCN1C(=O)[C@H](CCCCN)NC(=O)[C@H](CC(=O)O)NC(=O)[C@@H](N)C(C)C)C(=O)N[C@@H](Cc1ccc(O)cc1)C(=O)N[C@@H](CC(N)=O)C(=O)N[C@@H](CCCN=C(N)N)C(=O)NCC(=O)O [VDKPPYLPRPRMPRRIYNRG]
MIC [11]: 0.0886 µM (≈ 0.22 µg/mL)
